{
  "source": "ChEMBL document CHEMBL5260811",
  "about": "“Drug development against tuberculosis: Impact of alkaloids” (Eur J Med Chem, 2017)",
  "data": [
    {"system": "Mycobacterium tuberculosis", "experiment": "Antimycobacterial activity against Mycobacterium tuberculosis", "type": "functional", "details": "Mycobacterium tuberculosis", "units": {"MIC": "µg/mL"}, "values": [
      {"smiles": "O=Cc1ccc2[nH]c3ccccc3c2c1", "MIC": 100}
    ]},
    {"system": "Mycobacterium tuberculosis", "experiment": "Antimycobacterial activity against Mycobacterium tuberculosis H37Rv by microplate alamar blue assay", "type": "functional", "details": "not given", "units": {"MIC": "µg/mL"}, "values": [
      {"smiles": "O=Cc1ccc2[nH]c3ccccc3c2c1", "MIC": 42.3},
      {"smiles": "COc1ccc2[nH]c3ccc(C=O)cc3c2c1", "MIC": 15.6},
      {"smiles": "CC[C@H]1C=CCC[C@@]2(C[C@@H]3CC[C@@H]4[C@H](C(=O)OCCCCCCCCCCCCCCCC(=O)N(CCCN)CC(O)CCN)[C@]5(CCC[C@@H](C)O5)N=C(N2)N34)O1", "note": "(stereo partly drawn)", "MIC": 46.5},
      {"smiles": "COc1ccc2[nH]c3cc(O)c(C=O)cc3c2c1", "MIC": 14.3},
      {"smiles": "CCCCCCCCC[C@@H]1C[C@@H]2CC[C@H]3[C@@H](C(=O)O[C@H](C)CCCCCCC[C@@H]4C[C@@H]5CC[C@@H]6C[C@H](C)NC(=N4)N65)[C@@H](C)N=C(N1)N23", "MIC": 3.18},
      {"smiles": "C=C[C@H]1C=C[C@H]2[C@@H]3C[C@H](C)CC[C@H]3[C@@H]3Oc4ccc(cc4)C[C@]4(O)NC(=O)[C@H](C(=O)[C@@H]1[C@H]23)C4N1C(=O)[C@H]2C(=O)[C@H]3[C@@H](C=C)C=C[C@H]4[C@@H]5C[C@H](C)CC[C@H]5[C@H](Oc5ccc(cc5)C[C@@H]2C1=O)[C@@H]43", "note": "(stereo partly drawn) [HIRSUTELLONE F]", "MIC": 3.12},
      {"smiles": "CC(C)=CCc1c(O)ccc2[nH]c3ccc(C=O)cc3c12", "note": "[MICROMELINE]", "MIC": 31.5}
    ]},
    {"system": "Mycobacterium", "experiment": "Antimycobacterial activity against Mycobacterium", "type": "functional", "details": "not given", "values": [
      {"smiles": "COC1=C(Br)[C@@H](O)[C@]2(C=C1Br)CC(C(=O)NC[C@@H](O)COc1c(Br)cc(C(O)CNC(=O)C3=NO[C@@]4(C=C(Br)C(OC)=C(Br)[C@H]4O)C3)cc1Br)=CO2", "note": "(stereo partly drawn)", "MIC": "7.9 µg/mL"},
      {"smiles": "COC(=O)c1cc2c(o1)-c1nccc3c1c(nc1ccccc13)C2=O", "MIC": "0.61 µM"},
      {"smiles": "CS1(C2=CC(=O)C3=C(C2)c2nccc4cccc(c24)N3)CCC(=O)OC1", "note": "(stereo not drawn)", "MIC": "2.1 µM"},
      {"smiles": "COC1=C(Br)[C@@H](O)[C@]2(C=C1Br)CC(C(=O)NCCCOc1c(Br)cc(C(O)CNC(=O)C3=NO[C@@]4(C=C(Br)C(OC)=C(Br)[C@H]4O)C3)cc1Br)=CO2", "note": "(stereo partly drawn)", "MIC": "8 µg/mL"},
      {"smiles": "COC(=O)c1cc2c(s1)-c1nccc3c1c(nc1ccccc13)C2=O", "MIC": "0.58 µM"}
    ]},
    {"system": "Mycobacterium tuberculosis", "experiment": "Antimycobacterial activity against Mycobacterium tuberculosis H37Rv at 50 ug/ml relative to control", "type": "functional", "details": "not given", "units": {"inhibition at 50 µg/mL": "%"}, "values": [
      {"smiles": "C/C=C1\\CN2CC[C@@H]1[C@](CO)(C(=O)OC)c1[nH]c3ccccc3c1C2", "inhibition at 50 µg/mL": 50},
      {"smiles": "COC(=O)[C@@]12COCC=C3CN(CC[C@@H]31)Cc1c2[nH]c2ccccc12", "inhibition at 50 µg/mL": 50},
      {"smiles": "C=C(c1cc2ccccc2[nH]1)[C@H]1CCN(C)C/C1=C\\CO", "inhibition at 50 µg/mL": 50},
      {"smiles": "COC(=O)[C@@]12COCC=C3C[N+]([O-])(CC[C@@H]31)Cc1c2[nH]c2ccccc12", "inhibition at 50 µg/mL": 50},
      {"smiles": "CC[C@@H]1[C@@H]2CCN3CC[C@@]4(C(=C2C(=O)OC)Nc2ccccc24)[C@@H]13", "inhibition at 50 µg/mL": 50},
      {"smiles": "COC(=O)[C@@]1(c2cc3ccccc3[nH]2)COCC=C2CN(C)CC[C@@H]21", "note": "[6,7-SECO-ANGUSTILOBINE B]", "inhibition at 50 µg/mL": 50}
    ]},
    {"system": "Mycobacterium sp.", "experiment": "Antimycobacterial activity against Mycobacterium sp.", "type": "functional", "details": "not given", "units": {"MIC": "µg/mL"}, "values": [
      {"smiles": "COc1cnc2c3c(nccc13)C(=O)c1ccccc1-2", "MIC": 1.56},
      {"smiles": "c1ccc2c(c1)CC1NCCc3cc4c(c-2c31)OCO4", "note": "(stereo not drawn)", "MIC": 12},
      {"smiles": "CC[C@H]1C[C@H]2C[N@]3CCc4c([nH]c5ccc(OC)cc45)[C@](C(=O)OC)(C2)[C@H]13", "MIC": 50},
      {"smiles": "CC[C@H]1C[C@H]2C[C@H]3c4[nH]c5ccc(OC)cc5c4CCN(C2)C13", "MIC": 50},
      {"smiles": "Oc1ccc2c(c1)CC1NCCc3cc4c(c-2c31)OCO4", "note": "(stereo not drawn)", "MIC": 6},
      {"smiles": "CC[C@H]1CN(C)[C@H]2Cc3c([nH]c4ccccc34)C(=O)C[C@@H]1[C@@H]2C(=O)OC", "MIC": 128},
      {"smiles": "COc1ccc2c(c1)CC1NCCc3cc4c(c-2c31)OCO4", "note": "(stereo not drawn)", "MIC": 12},
      {"smiles": "Cc1ccnc2c1C(=O)c1ccccc1C2=O", "note": "[CLEISTOPHOLINE]", "MIC": 12.5},
      {"smiles": "COc1cc2c(cc1O)CC[n+]1cc3c(OC)c(OC)ccc3cc1-2", "note": "[JATRORRHIZINE]", "MIC": "< 100"},
      {"smiles": "O=C1c2ccccc2-c2nccc3ccnc1c23", "note": "[SAMPANGINE]", "MIC": 0.78}
    ]},
    {"system": "Mycolicibacterium smegmatis", "experiment": "(§1) Antimycobacterial activity against Mycobacterium smegmatis", "type": "functional", "details": "not given", "units": {"IC": "µg/mL"}, "values": [
      {"smiles": "C1=C\\CCCC[C@@H]2CN3CCCC/C=C\\CCCC[C@H]4C[C@H](CN(CCCCCC/1)C4)[C@H]2CC3", "IC": 1}
    ]},
    {"system": "Mycolicibacterium smegmatis", "experiment": "as §1", "type": "functional", "details": "Mycolicibacterium smegmatis", "units": {"MIC": "µg/mL"}, "values": [
      {"smiles": "Nc1ccccc1-c1c[nH]c(C(=O)O)c1", "MIC": 0.5},
      {"smiles": "O=C(/C=C/C=C/c1ccc2c(c1)OCO2)N1CCCCC1", "note": "[PIPERINE]", "MIC": 128},
      {"smiles": "O=CNCCCCC(NC(=O)C1COC(c2ccccc2O)=N1)C(=O)O", "note": "(stereo not drawn) [TRANSVALENCIN Z]", "MIC": 0.125}
    ]}
  ]
}
